Data from US20140128357A1, “METHODS OF PRODUCING AND USING BRASSINOSTEROIDS TO PROMOTE GROWTH, REPAIR AND MAINTENANCE OF SKELETAL MUSCLE AND SKIN” (Rutgers University, priority 2010, published 2014).

How the values were obtained:
L6 rat myotubes [1] = experiment: Protein synthesis, [3H]-phenylalanine incorporation in myotubes; format: cell-based; settings: 10 μM, 4 h
Procedure: (§1) In some aspects, cell culture experiments were carried out. Rat L6 skeletal muscle cell line CRL-1458 was obtained from ATCC (Manassas, Va.). Myoblasts were routinely maintained in Dulbecco's modified Eagle's medium (DMEM) containing 10% FBS and 0.1% penicillin-streptomycin at 37° C. and 5% CO2. Cells were subcultured into 24-well plates for protein synthesis, degradation, and cell viability studies and into 6-well plates for Western blot analyses (Greiner Bio One, Monroe, N.C.). Once cells reached 90% confluence, differentiation was induced by lowering the serum concentration to 2%, and medium was changed every 2 days. After 7-9 days of culture the myoblasts had fused into multinucleated myotubes (Mandel et al., Nature 251:618-620, 1974). NIH 3T3 murine embryonic fibroblast cell line (ATCC #CCL-92) was maintained in DMEM and 10% FBS at 37° C. in 5% CO2, and passaged every 3-4 days.
In various aspects, protein synthesis is measured to determine the effect of brassinosteroid on a particular protein. All known methods for measuring protein synthesis are included in the methods of the disclosure. In brassinosteroid dose response studies, fully differentiated myotubes were washed with serum-free DMEM and treated in triplicate with vehicle (0.1% ethanol), increasing concentrations of HB, or 6.5 nM of insulin-like growth factor-1 (IGF-1) as a positive control. Compounds were added to serum-free medium containing 0.5 μCi/mL [^3H]-phenylalanine and incubated for 4 h. For the HB time course study, fully differentiated myotubes were treated with 3 μM HB for 1-24 h using the same culture conditions. The incubation was stopped by placing cells on ice, discarding the medium, and washing the cells extensively with ice-cold PBS to remove the non-incorporated radiolabel. Proteins were precipitated with 5% trichloroacetic acid and dissolved in 0.5N NaOH (Montgomery et al., Methods Cell. Sci. 24:123-129, 2002). Specific radioactivity of protein-bound phenylalanine was quantified using liquid scintillation counter LS 6500 (Beckman Coulter, Fullerton, Calif.) and normalized to mg of total protein determined by BCA protein assay (Pierce Biotechnology, Rockford, Ill.).
The bioactivity of HB and its analogs was evaluated by measuring increases in protein synthesis in the L6 rat skeletal muscle cells in vitro. Cells were incubated for 4 h with [^3H]-phenylalanine and treated in triplicate with vehicle (0.1% ethanol) or test compound (10 μM), and protein synthesis was measured as incorporation of [^3H]-phenylalanine into protein normalized by total protein (Table 3). Under these conditions, both HB and (22S,23S)-homocastasterone increased protein synthesis by 37.2±5.9% (p<0.001) and 41.0±2.7% (p<0.001), respectively. This protein synthesis increase compared favorably to the biological activity of IGF-1 at 6.5 nM (42.5±4.5%, p<0.001) that served as a positive control in this assay. Removal of the 2α-hydroxyl group and fluorination at C-3 in the A ring (compound IDs 3-4 in Table 3) led to about a 50% decrease in bioactivity (24.6±5.3%, p<0.01 and 22.5±2.7%, p<0.01, respectively) compared to the positive control. However, there was still an increase in protein synthesis. […] Modifications in the side chain (compound IDs 7-9 in Table 3) abolished the activity.

L6 rat myotubes [2] = experiment: Protein degradation, release of acid-soluble [3H]-phenylalanine; format: cell-based; settings: 10 μM, 4 h
Procedure: as §1, with “After 7-9 days of culture the myoblasts had fused into multinucleated myotubes (Mandel et al., Nature 251:618-620, 1974).” left out
In various aspects, protein degradation is measured to determine the effect of brassinosteroid on a particular protein. All known methods for measuring protein degradation are included in the methods of the disclosure. The effect of brassinosteroids on protein degradation was investigated in fully differentiated myotubes as described by Fawcett et al. (Arch. Biochem. Biophys. 385:357-363, 2001) with slight modifications. Fully differentiated myotubes were incubated for 16 h to allow labeling of cellular proteins with 1.5 μCi/mL [^3H]-phenylalanine. […] The incubation was stopped by placing the cells on ice, and protein in the medium was precipitated with 5% trichloroacetic acid. Specific radioactivity of protein-free phenylalanine was quantified using liquid scintillation counter LS 6500 (Beckman Coulter, Fullerton, Calif.) and normalized to mg of total cell protein determined by BCA protein assay (Pierce Biotechnology, Rockford, Ill.).
The bioactivity of HB and its analogs (as shown in Table 3) were also evaluated by measuring decreases in protein degradation in the L6 rat skeletal muscle cells in vitro. Cells were labeled overnight with [^3H]-phenylalanine and subsequently treated for 4 h in triplicate with vehicle (0.1% ethanol) or test compound (10 μM), and protein degradation was assessed as release of acid-soluble [^3H]-phenylalanine into the media normalized by total protein (Table 3).

[3] = tested on: NIH 3T3 murine fibroblast cell line; experiment: Cytotoxicity, MTT assay in 3T3 fibroblasts; format: cell-based, mouse
Procedure: (§2) FIG. 9. Cell survival curves as measured by MTT assay for brassinosteroids 1-9 against the murine fibroblast cell line NIH-3T3. Cells were incubated with various concentrations of brassinosteroids (0.3-30 μM) for 24 h at 37° C. The mean absorbance of the control cells represented 100% cell proliferation, and the mean absorbance of treated cells was related to control values to determine sensitivity. Error bars represent standard error (n=6) from mean cell proliferation as determined by repeated experiments.
(§3) In various aspects, cell viability is measured and the effects of doses of compound and test reagents are tested in cell lines. In some aspects, cell viability was measured by the MTT (3-(4,5-Dimethylthiazol-2-yl)-2,5-diphenyltetrazolium bromide) assay in triplicate (Mosmann et al., J. Immunol. Methods 65:55-63, 1983) and quantified spectrophotometrically at 550 nm using a microplate reader (Molecular Devices, Sunnyvale, Calif.).
(§4) 3T3 fibroblasts were seeded in a 96-well flat bottom plate at a density of 1×10^4 cells/well. Cell viability was measured by an MTT (3-(4,5-Dimethylthiazol-2-yl)-2,5-diphenyltetrazolium bromide) assay in triplicate (0.3-30 μM of test substance for […]) essentially as described by Mosmann (J. Immunol. Methods 65, 55-63, 1983) and quantified spectrophotometrically at 550 nm using a microplate reader (Molecular Devices, Sunnyvale, Calif.). […] For cell proliferation studies, cells were treated in triplicate with 0.1-10 μM of test substance for 24 h and assayed using a BrdU (5-bromo-2′-deoxyuridine) kit from Amersham (Uppsala, Sweden).

[4] = tested on: 3T3 Swiss fibroblast monolayers; experiment: Scratch wound closure in vitro; format: cell-based, mouse; settings: for Scratch wound closure at 5 μM, % of control: 12 h (Table 6)
Procedure: 3T3 fibroblasts were seeded into 24-well dishes at a concentration of 3×10^5 cells/ml and cultured to nearly confluent cell monolayers. On the day of the experiment, a linear wound was generated in the monolayer with a sterile 100 μl plastic pipette tip and any cellular debris was removed by washing cells once with sterile PBS. Fresh DMEM medium containing vehicle (0.1% ethanol), positive control (0.5% FBS), or various concentrations of the fractions, sub-fractions or pure compounds was added to a set of 3 wells per dose and incubated for 12 h at 37° C. with 5% CO2. Cells were then visualized with 20 μl of 10% methylene blue in PBS for 5 min. Three representative images of the scratched areas from each well were photographed at 0 and 12 h to estimate the scratch wound closure. Images were analyzed using ImageJ program (NIH, Bethesda, Md.) and % wound closure was calculated relative to vehicle control and was reported as wound closure % over control (Table 4). 3T3 Swiss fibroblast were seeded into 24-well tissue culture at a concentration of 3×10^5 cells/ml and cultured to nearly confluent cell monolayers. Then, a linear wound was generated in the monolayer with a sterile 100 μl plastic pipette tip. Any cellular debris was removed by washing with PBS. DMEM medium with vehicle (0.1% ethanol), FBS (1%, positive control), or various concentrations of brassinosteroids were added to a set of 3 wells per dose and incubated for 12 h at 37° C. with 5% CO2. Cells were visualized in 10% methylene blue for 5 minutes. Three representative images from each well of the scratched areas under each condition were photographed to estimate the relative migration of cells at 0 and 12 h post-treatment. Data were analyzed using ImageJ software available online from the National Institutes of Health (rsbweb.nih.gov/ij/) by calculating the percentage of scratch closure at each dose point relative to control.

3T3 mouse fibroblasts = experiment: Cell proliferation, BrdU assay; format: cell-based; settings: 24 h
Procedure: as §4

[5] = Cytotoxicity, MTT assay in 3T3 fibroblasts; format: cell-based, mouse; settings: mouse
Procedure: as §2, §3, §4

[6] = tested on: 3T3 Swiss fibroblast monolayers; settings: PDGF 2 nM reference treatment, reported previously (Schmidt et al.); cited from earlier work
mice = settings: orally or subcutaneously; cited from earlier work
rats = settings: orally or subcutaneously; cited from earlier work

Compound	Protein synthesis (% increase over control) (L6 rat myotubes [1]) [%]	Protein degradation (% decrease over control) (L6 rat myotubes [2]) [%]	IC50 [3] [µM]	Scratch wound closure at 5 μM, % of control [4] [%]	Cell proliferation at 5 μM, % of control (3T3 mouse fibroblasts) [%]	further results
CC(C)[C@H](C)[C@H](O)[C@@H](O)[C@@H](C)[C@H]1CC[C@H]2[C@@H]3COC(=O)[C@H]4C[C@@H](O)[C@H](O)C[C@]4(C)[C@H]3CC[C@]12C [Compound 8, (22S,23S,24R)-2α,3α-22,23-tetrahydroxy-24-methyl-B-homo-7-oxa-5α-cholestan-6-one]	4.1 ± 1.7	−5.4 ± 7.9	> 30	13.2 ± 1.5	31.9 ± 5.3	–
CC[C@@H](C(C)C)[C@H](O)[C@@H](O)[C@@H](C)[C@H]1CC[C@H]2[C@@H]3CC(=O)[C@H]4C[C@H](F)CC[C@]4(C)[C@H]3CC[C@]12C [Compound 4, (22S,23S,24S)-3α-fluoro-22,23-dihydroxy-24-ethyl-5α-cholestan-6-one]	22.5±2.7	−16.3 ± 4.2	–	27.7 ± 4.0	–	IC50 [5]: ~30 µM; cytotoxicity compared to the original brassinosteroids [3]: increased cytotoxicity; Wound Closure (% over control) ([4]; 10 μM, 12 h (Table 4)): 27.7 ± 4.0 %; fibroblast migration activity in words ([4]; 0.1-10 μM, 12 h): high activity, similar to HB
CC(C)C(C)C(O)C(O)C(C)C1CCC2C3COC(=O)C4CC(O)C(O)CC4(C)C3CCC12C [Compound 9, (22R,23R,24R)-2α,3α-22,23-tetrahydroxy-24-methyl-B-homo-7-oxa-5α-cholestan-6-one]	11.7 ± 3.9	−6.7 ± 7.9	> 30	8.1 ± 1.6	31.0 ± 2.6	–
PDGF	–	–	–	–	–	Scratch wound closure, % of control [6]: 64.8 ± 1.7 %
CC(C)[C@@H](C)[C@@H](O)[C@H](O)[C@@H](C)[C@H]1CC[C@H]2[C@@H]3COC(=O)[C@H]4C[C@H](O)[C@H](O)C[C@]4(C)[C@H]3CC[C@]12C [24-Epibrassinolide]	–	–	–	–	–	median lethal dose (LD50) (mice): higher than 1000 mg/kg; median lethal dose (LD50) (rats): higher than 2000 mg/kg
CC[C@@H](C(C)C)[C@@H](O)[C@H](O)[C@@H](C)[C@H]1CC[C@H]2[C@@H]3COC(=O)[C@H]4C[C@H](O)[C@H](O)C[C@]4(C)[C@H]3CC[C@]12C [Compound 7, (22R,23R,24S)-2α,3α-22,23-tetrahydroxy-24-ethyl-B-homo-7-oxa-5α-cholestan-6-one]	13.1 ± 2.4	−14.8 ± 3.8	> 30	16.5 ± 0.5	29.1 ± 3.4	–
